Reference: US8524770B2, “Wool care composition” (Director General, Defence Research & Development …, priority 2009, dated 2013)

Columns and labels:
clothes moths [1] = conditions: Abbott & Billings 1935, Journal of Economic Entomology; cited from earlier work
clothes moths [2] = experiment: Protection of woollen articles / repellency against clothes moths; assay type: in vivo; conditions: confirmed by the present inventors
Excerpt: Conventionally naphthalene or Paradichlorobenzene is known in the art to be used to protect woollen and fur-feather lined articles from insect damage during their storage. But these above compounds are ineffective against clothes moths and thus unable to provide protection to the woollen items as established by Abbott & Billings of USA in 1935 and published their work in the Journal of Economic Entomology on page 493-495 as entitled “Further work showing that Paradichlorobenzene, Naphthalene and cedar oils are ineffective as repellents against clothes moth”. The ineffectiveness of the naphthalene balls in protection of woollen articles from insect pests is also confirmed by the present inventors.

Row | SMILES | Effectiveness as repellent against clothes moths (clothes moths [1]) | Protection of woollen articles from insect pests (clothes moths [2])
1 | Clc1ccc(Cl)cc1 [Paradichlorobenzene] | ineffective | 
2 | c1ccc2ccccc2c1 [naphthalene] | ineffective | ineffectiveness
